Earlier results as cited in patent US20090156670A1 (VENUS REMEDIES LIMITED, priority 2004, published 2009).

Assays:
[1] = rheumatoid arthritis patients, long-term (6 months) study
[2] = system: CD11a; conditions: human neutrophils
[3] = system: interleukin1β-induced prostaglandin E2 production
[4] = system: ICAM-3; conditions: human neutrophils
[5] = system: sodium urate-induced synovitis; conditions: dogs; prophylactically and therapeutically
[6] = system: adjuvant-induced polyarthritis; conditions: rats; prophylactically and therapeutically
[7] = target: COX-I (Homo sapiens, UniProt P23219); conditions: oral form
[8] = system: CD11b; conditions: human neutrophils
[9] = pain elicited by chemical and mechanical stimuli
[10] = system: CD44; conditions: human neutrophils
[11] = system: CD31; conditions: human neutrophils
[12] = rats
[13] = system: neutrophil aggregation
[14] = system: CD43; conditions: human neutrophils

Sequence of COX-I (P23219 24-599): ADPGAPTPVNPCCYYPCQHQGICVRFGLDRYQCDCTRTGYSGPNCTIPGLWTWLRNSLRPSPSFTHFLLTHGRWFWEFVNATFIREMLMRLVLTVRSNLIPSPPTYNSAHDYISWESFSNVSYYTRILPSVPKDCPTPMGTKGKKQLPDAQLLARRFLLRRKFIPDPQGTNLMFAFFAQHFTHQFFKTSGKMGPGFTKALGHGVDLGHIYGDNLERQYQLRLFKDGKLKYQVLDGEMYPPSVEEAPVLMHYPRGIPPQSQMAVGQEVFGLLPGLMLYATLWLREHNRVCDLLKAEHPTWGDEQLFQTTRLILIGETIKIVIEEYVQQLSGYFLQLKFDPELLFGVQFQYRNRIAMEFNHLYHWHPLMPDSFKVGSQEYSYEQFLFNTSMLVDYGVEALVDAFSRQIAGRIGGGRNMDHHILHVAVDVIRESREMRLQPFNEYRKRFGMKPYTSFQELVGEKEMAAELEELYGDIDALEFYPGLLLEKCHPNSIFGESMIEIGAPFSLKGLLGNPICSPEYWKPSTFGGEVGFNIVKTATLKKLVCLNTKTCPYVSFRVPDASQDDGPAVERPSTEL

O=C(O)Cc1ccccc1Nc1c(Cl)cccc1Cl [diclofenac]
incidence of gastrointestinal intolerance [1]: 17%

O=C(O)COC(=O)Cc1ccccc1Nc1c(Cl)cccc1Cl [aceclofenac, 2-[(2,6-dichlorophenyl)amino]phenylacetoxyacetic acid]
CD11a expression [2]: unaffected
interleukin1β-induced prostaglandin E2 production [3]: inhibits
decrement of ICAM-3 expression [4]: slight
activity against sodium urate-induced synovitis [5]: highly active
activity against adjuvant-induced polyarthritis [6]: highly active
COX-I inhibitor effect [7]: poor
CD11b expression [8]: slightly increased
analgesic effect compared with indometacin and diclofenac [9]: nearly equal to or slightly better
CD44 expression [10]: unaffected
CD31 expression [11]: unaffected
fever induced by brewer's yeast injection [12]: markedly suppressed
neutrophil aggregation induced with anti-CD43 Mab [13]: significantly inhibited
decrement of CD43 expression [14]: moderate
incidence of gastrointestinal intolerance [1]: 13%
